These compounds were tested against GST-tagged truncated human mutant G2019S LRRK2 (Homo sapiens (Human), UniProt Q5S007, G2019S) (assay: LRRK2 G2019S Km ATP LanthaScreen assay). Details: G2019S LRRK2, 134 μM ATP (Km ATP), LRRKtide substrate.
Type: biochemical
Experimental: Unless otherwise noted, all reactions are magnetically allowed to stir, diethyl ether used in the experiments described below is Fisher ACS certified material stabilized with BHT, and “concentrated” and/or “solvent removed under reduced pressure” means evaporating the solvent from a solution or mixture using a rotary evaporator or vacuum pump. Unless otherwise noted, flash chromatography is carried out on a Teledyne Isco (Lincoln, NE), Analogix (Burlington, WI), or Biotage (Stockholm, SWE) automated chromatography system using a commercially available cartridge as the column. Columns may be purchased from Teledyne Isco, Analogix, Biotage, Varian (Palo Alto, CA), or Supelco (Bellefonte, PA) and are usually filled with silica gel as the stationary phase. Reverse phase prep-HPLC conditions, where used, can be found at the end of each experimental section. Aqueous solutions were concentrated on a Genevac (Ipswich, ENG) or by freeze-drying/lyophilization. Unless otherwise noted, all LRRK2 pIC50 data presented in tables refers to the LRRK2 G2019S Km ATP LanthaScreen™ assay (Life Technologies Corp., Carlsbad, CA) that is described in the Biological Assay section.
The LRRK2 kinase activity reported herein as IC50 values was determined with LanthaScreen™ technology from Life Technologies Corporation (Carlsbad, CA) using GST-tagged truncated human mutant G2019S LRRK2 in the presence of the fluorescein-labeled peptide substrate LRRKtide, also from Life Technologies. The data presented for the […] depending on the specific conditions and reagents used. Assays were performed in the presence of 134 μM ATP (Km ATP). Upon completion, the assay was stopped and phosphorylated substrate detected with a terbium (Tb)-labeled anti-pERM antibody (cat. no. PV4898). The compound dose response was prepared by diluting a 10 mM stock of compound to a maximum concentration of 9.99 μM in 100% dimethylsulfoxide followed by custom fold serial dilution in dimethylsulfoxide nine times. Twenty nanoliters of each dilution was spotted via a Labcyte Echo onto a 384-well black-sided plate (Corning 3575) followed by 15 μl of a 1.25 nM enzyme solution in 1× assay buffer (50 mM Tris pH 8.5, 10 mM MgCl2, 0.01% Brij-35, 1 mM EGTA, 2 mM dithiothreitol, 0.05 mM sodium orthovanadate). Following a 15-minute incubation at room temperature, the kinase reaction was started with the addition of 5 μl of 400 nM fluorescein-labeled LRRKtide peptide substrate and 134 μM ATP solution in 1× assay buffer. The reaction was allowed to progress at ambient temperature for 90 minutes. The reaction was then stopped by the addition of 20 μl of TR-FRET Dilution Buffer (Life Technologies, Carlsbad, CA) containing 2 nM Tb-labeled anti-phospho LRRKtide antibody and 10 mM EDTA (Life Technologies, Carlsbad, CA). After an incubation of 1 h at room temperature, the plate was read on an EnVision multimode plate reader (Perkin Elmer, Waltham, MA) with an excitation wavelength of 337 nm (Laser) and a reading emission at both 520 and 495 nm. Compound IC50s were interpolated from nonlinear regression best fits of the log of the final compound concentration, plotted as a function of the 520/495-nm emission ratio using Activity base. Abase uses a 4 parameter (4P) logistic fit based on the Levenberg-Marquardt algorithm.

GST-tagged truncated human mutant G2019S LRRK2, sequence (Q5S007 970-2527 G2019S): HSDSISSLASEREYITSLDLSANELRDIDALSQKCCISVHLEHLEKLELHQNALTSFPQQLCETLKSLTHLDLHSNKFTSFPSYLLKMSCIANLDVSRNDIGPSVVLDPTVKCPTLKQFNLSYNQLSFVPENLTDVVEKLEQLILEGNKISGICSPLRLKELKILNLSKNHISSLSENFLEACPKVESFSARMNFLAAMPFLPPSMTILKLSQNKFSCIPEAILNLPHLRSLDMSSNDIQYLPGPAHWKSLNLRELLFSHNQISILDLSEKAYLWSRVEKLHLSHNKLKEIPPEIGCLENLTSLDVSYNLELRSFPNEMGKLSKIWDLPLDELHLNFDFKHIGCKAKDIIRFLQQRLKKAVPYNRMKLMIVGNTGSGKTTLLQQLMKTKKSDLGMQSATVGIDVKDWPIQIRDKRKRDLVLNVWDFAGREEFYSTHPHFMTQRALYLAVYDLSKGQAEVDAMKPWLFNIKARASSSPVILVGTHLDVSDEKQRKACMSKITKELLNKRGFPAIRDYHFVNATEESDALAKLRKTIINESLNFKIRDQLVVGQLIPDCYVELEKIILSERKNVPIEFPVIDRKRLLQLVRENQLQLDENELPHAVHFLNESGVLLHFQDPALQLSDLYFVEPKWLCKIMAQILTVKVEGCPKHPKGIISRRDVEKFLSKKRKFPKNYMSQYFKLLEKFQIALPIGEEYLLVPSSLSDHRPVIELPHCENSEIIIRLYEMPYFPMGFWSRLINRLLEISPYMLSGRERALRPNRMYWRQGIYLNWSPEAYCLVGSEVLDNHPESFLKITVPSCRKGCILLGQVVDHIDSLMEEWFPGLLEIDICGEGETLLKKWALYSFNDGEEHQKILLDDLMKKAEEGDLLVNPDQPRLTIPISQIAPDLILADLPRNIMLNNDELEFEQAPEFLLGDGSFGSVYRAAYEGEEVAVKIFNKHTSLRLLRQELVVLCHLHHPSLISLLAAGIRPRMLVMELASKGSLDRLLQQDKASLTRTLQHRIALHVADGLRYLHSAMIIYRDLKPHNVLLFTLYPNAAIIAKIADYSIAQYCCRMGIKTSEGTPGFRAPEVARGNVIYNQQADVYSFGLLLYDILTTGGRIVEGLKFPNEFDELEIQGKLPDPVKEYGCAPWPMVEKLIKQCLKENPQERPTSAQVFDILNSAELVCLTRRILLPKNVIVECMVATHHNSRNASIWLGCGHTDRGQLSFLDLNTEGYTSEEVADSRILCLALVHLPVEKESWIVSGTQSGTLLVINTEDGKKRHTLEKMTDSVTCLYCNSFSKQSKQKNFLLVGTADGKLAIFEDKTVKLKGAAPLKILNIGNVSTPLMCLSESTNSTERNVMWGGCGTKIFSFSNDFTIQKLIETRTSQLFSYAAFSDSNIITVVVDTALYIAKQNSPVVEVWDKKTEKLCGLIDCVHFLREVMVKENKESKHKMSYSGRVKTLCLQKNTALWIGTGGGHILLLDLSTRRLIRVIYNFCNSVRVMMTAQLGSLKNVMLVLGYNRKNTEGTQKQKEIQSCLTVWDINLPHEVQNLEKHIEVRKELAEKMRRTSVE

| SMILES | LRRK2 pIC50 |
| --- | --- |
| O[C@@H]1CC[C@H]1n1nc(C2CC2)c2c1OC[C@@H]1COC[C@H]1Nc1nc(ncc1C(F)(F)F)N2 (single isomer, unassigned) [Ex-6.9, (1R,2R)- or (1S,2S)-2-((10aS,13aS)-3-cyclopropyl-8-(trifluoromethyl)-10a,11,13a, 14-tetrahydro-10H,13H-5,9-(azeno)furo[3,4-k]pyrazolo[3,4-b][1]oxa[4,6,10]triazacyclotridecin-1(4H)-yl)cyclobutan-1-ol] | >10.09 |
| Cc1nn(C)c2c1CCC[C@@H](C)Nc1nc(ncc1C(F)(F)F)N2 (single isomer, unassigned) [Ex-11.1, (R)- or (S)-1,3,7-Trimethyl-10-(trifluoromethyl)-4,5,6,7,8,14-hexahydro-1H-9,13-(azeno)pyrazolo[4,3-l][1,3,7]triazacyclotridecine] | 8.49 |
| Cc1nn(C2CCC2)c2c1CC[C@@H]1COC[C@H]1Nc1nc(ncc1C(F)(F)F)N2 (single isomer, unassigned) [Ex-12.1, (10aS,13aS)- or (10aR,13aR)-3-Cyclobutyl-1-methyl-8-(trifluoromethyl)-3,4,10a,11,13,13a,14,15-octahydro-10H-5,9-(azeno)furo[3,4-h]pyrazolo[4,3-l][1,3,7]triazacyclotridecine] | >10.09 |
| Cc1nn2c(c1C)Nc1ncc(C(F)(F)F)c(n1)N[C@@H](C)CCC2 (single isomer, unassigned) [Ex-16.1, 8,14,15-Trimethyl-5-(trifluoromethyl)-8,9,10,11-tetrahydro-1H,7H-2,6-(azeno)pyrazolo[1,5-a][1,3,5,9]tetraazacyclotridecine] | 7.70 |
| Cc1c2c(nn1C1CC1)Nc1ncc(C(F)(F)F)c(n1)N[C@@H](C)CCO2 (single isomer, unassigned) [Ex-17.1, (R)- or (S)-2-cyclopropyl-3,7-dimethyl-10-(trifluoromethyl)-2,5,6,7,8,14-hexahydro-9,13-(azeno)pyrazolo[4,3-b][1]oxa[4,6,10]triazacyclotridecine] | 6.63 |
| Cc1c2c(nn1C1CC1)Nc1ncc(C(F)(F)F)c(n1)N[C@H](C)CCO2 (single isomer, unassigned) [Ex-17.2, (R)- or (S)-2-cyclopropyl-3,7-dimethyl-10-(trifluoromethyl)-2,5,6,7,8,14-hexahydro-9,13-(azeno)pyrazolo[4,3-b][1]oxa[4,6,10]triazacyclotridecine] | 8.24 |
| Cc1nn(C2CCC2)c2c1OC[C@H]1CN(C[C@@H]1C)c1nc(ncc1C(F)(F)F)N2 (single isomer, unassigned) [Ex-20.1, (6S,7S)- or (6R,7R)-1-Cyclobutyl-3,7-dimethyl-11-(trifluoromethyl)-1,5,6,7,8,15-hexahydro-10,14-(azeno)-6,9-methanopyrazolo[4,3-b][1]oxa[4,6,10]triazacyclotetradecine] | 5.84 |
| Cc1nn(C2CCC2)c2c1OC[C@@H]1CN(C[C@H]1C)c1nc(ncc1C(F)(F)F)N2 (single isomer, unassigned) [Ex-20.2, (6S,7S)- or (6R,7R)-1-Cyclobutyl-3,7-dimethyl-11-(trifluoromethyl)-1,5,6,7,8,15-hexahydro-10,14-(azeno)-6,9-methanopyrazolo[4,3-b][1]oxa[4,6,10]triazacyclotetradecine] | 9.39 |
| Cc1nn(C2CCC2)c2c1OC[C@H]1CN(CCO1)c1nc(ncc1C(F)(F)F)N2 (single isomer, unassigned) [Ex-21.1, (6R)- or (6S)-1-cyclobutyl-3-methyl-12-(trifluoromethyl)-1,5,6,8,9,16-hexahydro-11,15-(azeno)-6,10-methanopyrazolo[4,3-e][1,4]dioxa[7,9,13]triazacyclopentadecine] | 6.09 |
| Cc1nn(C2CCC2)c2c1OC[C@@H]1CN(CCO1)c1nc(ncc1C(F)(F)F)N2 (single isomer, unassigned) [Ex-21.2, (6R)- or (6S)-1-cyclobutyl-3-methyl-12-(trifluoromethyl)-1,5,6,8,9,16-hexahydro-11,15-(azeno)-6,10-methanopyrazolo[4,3-e][1,4]dioxa[7,9,13]triazacyclopentadecine] | 8.07 |
| Cc1nn(C(C)(C)C#N)c2c1Nc1ncc(C(F)(F)F)c(n1)N[C@@H]1CCC1CO2 (stereo partly drawn) [Ex-1.1, 2-Methyl-2-((10aR,12aR)-3-methyl-8-(trifluoromethyl)-10,10a,11,12,12a,13-hexahydro-5,9-(azeno)cyclobuta[k]pyrazolo[3,4-b][1]oxa[4,6,10]triazacyclotridecin-1 (4H)-yl)propanenitrile] | >10.09 |
| Cn1nc(C(F)(F)F)c2c1OCC1COC[C@H]1Nc1nc(ncc1C(F)(F)F)N2 (stereo partly drawn) [Ex-1.2, (10aS,13aS)-1-Methyl-3,8-bis(trifluoromethyl)-1,4,10a,11,13a,14-hexahydro-10H,13H-5,9-(azeno)furo[3,4-k]pyrazolo[3,4-b][1]oxa[4,6,10]triazacyclotridecine] | >10.09 |
| CCn1nc(C)c2c1OCC1(CC1)CNc1nc(ncc1C(F)(F)F)N2 [Ex-1.3, 1′-ethyl-3′-methyl-8′-(trifluoromethyl)-1′,4′,10′,11′-tetrahydro-13′H-spiro[cyclopropane-1,12′-[5,9](azeno)pyrazolo[3,4-b][1]oxa[4,6,10]triazacyclotridecine]] | 9.07 |
| Cc1nn(C)c2c1Nc1ncc(C(F)(F)F)c(n1)N[C@H](C)CCO2 [Ex-1.4, (R)-1,3,11-trimethyl-8-(trifluoromethyl)-1,4,10,11,12,13-hexahydro-5,9-(azeno)pyrazolo[3,4-b][1]oxa[4,6,10]triazacyclotridecine] | 8.93 |

Same assay, conditions: G2019S LRRK2, 134 μM ATP (Km ATP), LRRKtide substrate; read-out: LRRK2 pIC50 (converted)

| SMILES | IC50 |
| --- | --- |
| Cc1nn(C)c2c1CCC[C@@H](C)Nc1nc(ncc1C(F)(F)F)N2 (single isomer, unassigned) [Ex-11.2, (R)- or (S)-1,3,7-Trimethyl-10-(trifluoromethyl)-4,5,6,7,8,14-hexahydro-1H-9,13-(azeno)pyrazolo[4,3-l][1,3,7]triazacyclotridecine] | 3.16 nM |
| Cc1nn(C2CCC2)c2c1CC[C@@H]1COC[C@H]1Nc1nc(ncc1C(F)(F)F)N2 (single isomer, unassigned) [Ex-12.2, (10aS,13aS)- or (10aR,13aR)-3-Cyclobutyl-1-methyl-8-(trifluoromethyl)-3,4,10a,11,13,13a,14,15-octahydro-10H-5,9-(azeno)furo[3,4-h]pyrazolo[4,3-l][1,3,7]triazacyclotridecine] | 0.24 nM |
| Cc1nn2c(c1C)Nc1ncc(C(F)(F)F)c(n1)N[C@@H](C)CCC2 (single isomer, unassigned) [Ex-16.2, 8,14,15-Trimethyl-5-(trifluoromethyl)-8,9,10,11-tetrahydro-1H,7H-2,6-(azeno)pyrazolo[1,5-a][1,3,5,9]tetraazacyclotridecine] | 0.631 nM |
| Cc1nn(C2CCC2)c2c1OCC[C@@H]1COCCN1c1nc(ncc1C(F)(F)F)N2 (single isomer, unassigned) [Ex-21.3, (R) or (S)-3-cyclobutyl-1-methyl-8-(trifluoromethyl)-3,4,11,12,14,14a,15,16-octahydro-5,9-(azeno)[1,4]oxazino[4,3-j]pyrazolo[4,3-b][1]oxa[4,6,10]triazacyclotridecine] | 22.9 nM |
| Cc1nn(C2CCC2)c2c1OCC[C@H]1COCCN1c1nc(ncc1C(F)(F)F)N2 (single isomer, unassigned) [Ex-21.4, (R) or (S)-3-cyclobutyl-1-methyl-8-(trifluoromethyl)-3,4,11,12,14,14a,15,16-octahydro-5,9-(azeno)[1,4]oxazino[4,3-j]pyrazolo[4,3-b][1]oxa[4,6,10]triazacyclotridecine] | 2450 nM |

From US20250313575A1, “MACROCYCLES AS LRRK2 INHIBITORS, PHARMACEUTICAL COMPOSITIONS, AND USES THEREOF” (Merck Sharp & Dohme LLC, priority 2022, published 2025)
